Test results from patent publication US20100310451A1, “ALTERED N-CADHERIN PROCESSING IN TUMOR CELLS BY FURIN AND PROPROTEIN CONVERTASE 5A (PC5A)” (THE ROYAL INSTITUTION FOR THE ADVANCEMENT OF LEARN, priority 2007, published 2010).
The star is where a group is joined. Decanoyl = CCCCCCCCCC(=O)*; CH2Cl = ClC*

How the values were obtained:
[1] = test system: proprotein convertases (PCs); assay: N-cadherin proteolytic processing assay, transfected HeLa cells; type: cell-based; settings: HeLa cells transfected with N-cadherin +/- FL-PC5A; 50 μM dec-cmk; proN antibody
Procedure: (§1) To assess N-cadherin proteolytic processing, we devised an assay where N-terminal cleavage products were detected in the conditioned medium of cells using the proN antibody. Cells were transiently transfected with the appropriate construct(s), the conditioned medium was collected 36 h later, concentrated, and total protein concentration was determined using a Lowry assay (Biorad). Conditioned medium (15 μg protein) was run on a 15% gel, and cleavage products detected were as follows: a 17 kDa band corresponded to cleavage at the consensus site, and a 20 kDa band represented cleavage at the second site.

[2] = test system: proprotein convertases (PCs); assay: N-cadherin proteolytic processing assay, transfected U251 and U343 glioma cells; type: cell-based, human; settings: U251 and U343 cells transfected with N-cadherin; dec-cmk in culture medium
Procedure: as §1

PC5A [3] = assay: Endogenous PC5A cell surface localization, glioma cells; type: cell-based, human; settings: U251 and U343 cells; heparin added to the cells
Procedure: (§2) Live-cell staining was carried out by incubating cells plated on coverslips with primary antibody diluted in medium without serum at 4° C. for 1 h. The cells were washed with PBS and fixed in 4% paraformaldehyde. Following washes with PBS, cells were incubated with fluorescent-conjugated secondary antibody diluted in 1% BSA, 0.02% TritonX, PBS, for 40 min at room temperature. Coverslips were then mounted and examined as above. For surface PC5A staining, cells were washed twice with ice-cold PBS, fixed with freshly prepared 3.7% paraformaldehyde for 10 min on ice, washed 3 times with PBS, incubated in 150 mM glycine for 5 min, washed once with PBS, blocked for 30 min in 1% BSA, incubated in primary antibody overnight at 4° C., washed 4 times with PBS, incubated with secondary antibody for 40 min at room temperature, and washed 4 times with PBS. Coverslips were mounted and examined as above.

PC5A [4] = assay: PC5A cell surface localization, FL-PC5A transfected HeLa cells; type: cell-based; settings: HeLa cells transfected with FL-PC5A; heparin added to culture medium; non-permeabilizing
Procedure: as §2

| Substance | N-cadherin cleavage products in conditioned medium [1] | N-cadherin cleavage products in conditioned medium [2] | PC5A detection at the cell surface (PC5A [3]) | PC5A detection on the cell surface (PC5A [4]) |
| --- | --- | --- | --- | --- |
| Decanoyl-Arg-Val-Lys-Arg-chloromethylketone (Decanoyl-RVKR-CH2Cl) [dec-cmk] | no cleavage products detected | no cleavage products detected | – | – |
| heparin | – | – | not detected | not detected |
